According to patent US20130205438A1, “DOUBLING OF CHROMOSOMES IN HAPLOID EMBRYOS” (PIONEER HI BRED INTERNATIONAL INC, priority 2005, published 2013):
Marks after values point to notes of the source that are not given here.

Tests used:
Assay type in all cases: in vivo
[1] = system: haploid embryos of maize lines "B" and "C"; test: Chromosome doubling of isolated haploid immature maize embryos on pronamide medium (Example 3); settings: 6 uM pronamide, 48 hours
Procedure: Two different diploid maize lines, “B” and “C” were pollinated with a haploid inducer line, containing homozygousGFP. Immature embryos were isolated at 11 days after pollination and embryo size ranged from 1.5-1.6 mm in length. The diploid embryos, embryos showing GFP expression, were discarded. The haploid embryos, embryos not expressing GFP, were cultured on a modified MS medium containing 6 uM pronamide with scutellum side up for 48 hours at 26 C in dark. Alter approximately 48 hours the embryos were transferred to a modified MS medium without any doubling agent. Embryos were placed with scutellum side down for 6-10 days at 26 C in the dark. The plantlets germinated torn these treated embryos were then moved into a light culture room at 28 C for another 3 weeks till healthy plantlets with good roots developed. These plantlets were then transferred to soil and grown in a regular greenhouse to maturation. The plants were self pollinated and the mature seeds will be harvested. The harvested seed will be planted as an ear-row. The plants within a row will be examined for uniformity of the plant morphology.

[2] = system: ears of hybrid maize plants pollinated by haploid inducer plants; test: Immature ear treatment for haploid doubling, ear/stalk in liquid medium with Pronamide (Example 6); settings: 5 uM Pronamide, 0.5% DMSO, one day
Excerpt: Hybrid maize plants were pollinated by haploid inducer plants. The ears with part of the stalks attached were harvested from the hybrid plants 4-6 days after pollination (embryo length less than 0.4 mm). The stalks were about 4-8 inches long on each side of where the ears were attached. The ears and the attached stalks are surface sterilized with 70% ethanol or 5% Chlorox. The lower ends of the stalks containing the ears were emerged into liquid medium containing MS medium, MS vitamins, sucrose, etc and 5 uM Pronamide, 0.5% DM SO for one day at 26 C. Then the ears still contained an the stalks were moved to a fresh medium containing MS medium, MS vitamins, sucrose etc. without doubling agent to allow the embryos and kernels to develop. The embryos within the ear can be isolated at any time after doubling. Embryo rescue can then be used to germinate immature embryos into plants. The germinated plants were grown to examine fertility.

[3] = system: immature embryos of hybrid maize plants pollinated with maternal-haploid-inducing line; test: Testing different hybrids and timing of doubling agent (Example 9)
Procedure: A maternal-haploid-inducing maize line was used to pollinate 4 different hybrid plants. The immature embryos derived from these crosses were isolated and placed directly on embryo rescue medium containing 5 uM pronamide. Embryos were kept on the pronamide medium for approximately 36 or 48 hours before being transferred to new media without the doubling agent.
The plantlets germinated from these treated embryos were then transferred into tubes until healthy plantlets with good roofs developed. These plantlets were then transferred to soil and grown in a regular greenhouse to maturation. The plants were self-pollinated and the mature seeds were harvested.

[4] = system: haploid embryos of maize plant "A"; test: Chromosome doubling of isolated haploid immature maize embryos on colchicine medium (Example 2); settings: 0.05% colchicine, 24 hours
Procedure: A diploid maize plant, “A”, was pollinated with a haploid inducer line containing GFP. Immature embryos were isolated at 12 days after pollination and the embryo size is ranged from 1.9-2.0 mm long. The diploid embryos, GFP expressing embryos, were discarded. The haploid embryos, based on the absence of the GFP marker expression, were cultured on a medium comprising MS salts, MS vitamins, thiamine, asparagine, BAP, sucrose, gelrite, and 0.05% colchicine with scutellum side up for 24 hours at 26 C in the dark. […] This medium comprised MS salts, MS vitamins, myo-inositol, sucrose, and gelrite. The plantlets germinated from these treated embryos, were transferred to a light culture room at 26 C for another 2 -3 weeks until healthy plantlets with good roots developed. These plantlets were transferred to soil and grown in a regular greenhouse to maturation. The plants were self-pollinated and the mature seeds will be harvested. The harvested seed from each plant will be grown as an ear-row and the plants will examined for uniformity of the plant morphology within each ear-row.

[5] = Ear 1, ear/stalk harvest 6 days after pollination
[6] = Ear 2, ear/stalk harvest 6 days after pollination
[7] = Ear 3, ear/stalk harvest 5 days after pollination
[8] = Ear 4, ear/stalk harvest 4 days after pollination

**Q.** How did the “Fully Fertile Plant” value ([1]; Line B, 11 haploid embryos) turn out when `C#CC(C)(C)NC(=O)c1cc(Cl)cc(Cl)c1` [pronamide, 3,5-dichloro-N-(1,1-dimethyl-2-propynyl)benzamide] was run?
**A.** 2*

**Q.** What about the “Fully Fertile Plant” value ([1]; Line C, 4 haploid embryos) of the same compound?
**A.** 3

**Q.** And the “Fully Fertile Plant, percent of plantlets to greenhouse” value ([1]; Sum of lines B and C)?
**A.** (83.3%)

**Q.** And the “Plantlet Germinated, percent of haploid embryos” value ([1]; Sum of lines B and C)?
**A.** (53.3%)

**Q.** What about the “Fully Fertile Plant” value ([1]; Sum of lines B and C, 15 haploid embryos) of the same compound?
**A.** 5

**Q.** And the “% of plants with fertile tassel” value [2, 5]?
**A.** 67%

**Q.** And the “Number of plants with fertile tassel” value [2, 5]?
**A.** 16

**Q.** What about the “Number of plants with sterile tassel” value [2, 5] of the same compound?
**A.** 8

**Q.** What about the “% of plants with fertile tassel” value [2, 6] of the same compound?
**A.** 94%

**Q.** And the “Number of plants with fertile tassel” value [2, 6]?
**A.** 30

**Q.** And the “Number of plants with sterile tassel” value [2, 6]?
**A.** 2

**Q.** What about the “% of plants with fertile tassel” value [2, 7] of the same compound?
**A.** 70%

**Q.** What about the “Number of plants with fertile tassel” value [2, 7] of the same compound?
**A.** 14

**Q.** What about the “Number of plants with sterile tassel” value [2, 7] of the same compound?
**A.** 6

**Q.** What about the “% of plants with fertile tassel” value [2, 8] of the same compound?
**A.** 95%

**Q.** What about the “Number of plants with fertile tassel” value [2, 8] of the same compound?
**A.** 19

**Q.** What about the “Number of plants with sterile tassel” value [2, 8] of the same compound?
**A.** 1

**Q.** What about the “% of plants with fertile tassel” value ([2]; Sum of 4 ears) of the same compound?
**A.** 82%

**Q.** And the “Number of plants with fertile tassel” value ([2]; Sum of 4 ears)?
**A.** 79

**Q.** And the “Number of plants with sterile tassel” value ([2]; Sum of 4 ears)?
**A.** 17

**Q.** And the “# of Double Haploid Plants with Ears” value ([3]; 5 uM Pronamide 36 hours, Hybrid 1, 11 days after pollination, 100 embryos excised, embryo size 2.5 mm)?
**A.** 1

**Q.** And the “# of Double Haploid Plants with Ears” value ([3]; 5 uM Pronamide 36 hours, Hybrid 1, 12 days after pollination, 300 embryos excised, embryo size 2.5 mm)?
**A.** 1

**Q.** And the “# of Double Haploid Plants with Ears” value ([3]; 5 uM Pronamide 36 hours, Hybrid 2, 11 days after pollination, 176 embryos excised, embryo size 2.5-3 mm)?
**A.** 4

**Q.** And the “# of Double Haploid Plants with Ears” value ([3]; 5 uM Pronamide 36 hours, Hybrid 3, 12 days after pollination, 279 embryos excised, embryo size 2.5-3 mm)?
**A.** 13

**Q.** What about the “# of Double Haploid Plants with Ears” value ([3]; 5 uM Pronamide 36 hours, Hybrid 4, 12 days after pollination, 322 embryos excised, embryo size 2.5 mm) of the same compound?
**A.** 2

**Q.** And the “# of Double Haploid Plants with Ears” value ([3]; 5 uM Pronamide 48 hours, Hybrid 3, 10 days after pollination, 236 embryos excised, embryo size 2 mm)?
**A.** 6

**Q.** And the “# of Double Haploid Plants with Ears” value ([3]; 5 uM Pronamide 48 hours, Hybrid 4, 10 days after pollination, 144 embryos excised, embryo size 2 mm)?
**A.** 3

**Q.** And the “Homozygosity of progeny of double haploid plants” value ([3]; 5 uM pronamide 36 or 48 hours, sample of plants, 120 molecular markers)?
**A.** confirmed for homozygosity

**Q.** `COc1cc2c(c(OC)c1OC)-c1ccc(OC)c(=O)cc1[C@@H](NC(C)=O)CC2` [colchicine, (S)-N-(5,6,7,9-tetrahydro-1,2,3,10-tetramethoxy-9-oxobenzo (a)heptalen-7-yl) acetamide] was tested. Which “Fully Fertile Plants” value ([4]; Ear 1, 3 haploid embryos) did it give?
**A.** 2

**Q.** What about the “Fully Fertile Plants” value ([4]; Ear 2, 7 haploid embryos) of the same compound?
**A.** 4*

**Q.** What about the “Fully Fertile Plants” value ([4]; Ear 3, 9 haploid embryos) of the same compound?
**A.** 8

**Q.** What about the “Fully Fertile Plants, percent of plantlets to greenhouse” value ([4]; Sum of 3 ears) of the same compound?
**A.** (93.3%)

**Q.** And the “Plantlets Germinated, percent of haploid embryos” value ([4]; Sum of 3 ears)?
**A.** (84.2%)

**Q.** What about the “Fully Fertile Plants” value ([4]; Sum of 3 ears, 19 haploid embryos) of the same compound?
**A.** 14
